Read-outs that look alike come from different tables or passages of the source. Marks after values point to notes of the source that are not given here.
How the values were obtained:
[1] = system: type 1 fimbriated E. coli (HB101pPKL4); FimH-mediated binding to mannan; details: relative to MeMan, IP(MeMan) ≡ 1; ELISA, as reported earlier; ref 34 (DubberMSperlingOLindhorstT KOrg Biomol Chem2006439013912); cited from earlier work
Excerpt: Table 1 Inhibitory potencies in mannose-specific E. coli adhesion of the bivalent glycopeptide 1 in comparison with reference ligands, as determined by ELISA. IC50-values are average values from three independent assays. S: standard deviation; RIP: relative inhibitory potency based on methyl α-D-mannopyranoside (MeMan) with IP(MeMan) ≡ 1.

[2] = system: type 1 fimbriated E. coli (HB101pPKL4); FimH-mediated binding to mannan; experiment: ELISA, inhibition of mannose-specific type 1 fimbriated E. coli adhesion to mannan-coated microtiter plates; type: cell-based
Experimental: The synthesis of the bivalent glycopeptide 1 was not optimized in order to improve all the individual yields, because it has been the primary goal of this study to test the anti-adhesive properties of this type of ligand. An ELISA was performed as reported earlier, employing type 1 fimbriated E. coli bacteria and mannan-coated microtiter plates. In this assay a mannosidic ligand competes with the polysaccharide mannan adsorbed on a polystyrene microtiter plate for FimH-mediated binding to the type 1 fimbriated bacteria. The inhibitory ligand is employed in serial dilutions. This leads to inhibition curves, from which IC50-values can be deduced. The IC50-values reﬂect the inhibitor concentration that causes 50% inhibition of bacterial binding to mannan. […] Here, RIPs were based on the IC50-value determined for MeMan on the same plate, which was defined as IP ≡ 1. […]
An ELISA protocol was used to determine the IC50-value of the bivalent target glycopeptide 1 in comparison with monovalent reference ligands, employing mannan-coated microtiter plates and type 1 fimbriated E. coli (HB101pPKL4) as described earlier Optical densities (ODs) were measured on an AMP 400 COM ELISA reader at 405 nm (reference wavelength 492 nm). The percentage inhibition was calculated as {[OD(nI)-OD(I)] × 100 × [OD(nI)]^−1} (nI: no inhibitor, I: with inhibitor). […]

Structure (SMILES) | RIP (relative inhibitory potency) [1] | IC50 ([2]; mannan from Saccharomyces cerversiae coated (1 mg × ml^−1, 50 mM aq Na2CO3, pH 9.6), type 1 fimbriated E. coli (HB101pPKL4), OD at 405 nm (reference 492 nm), inhibitor in serial dilutions, sigmoidal fit, average values from three independent assays, S (in parentheses): standard deviation, read-out: IC50 (inhibitor concentration that causes 50% inhibition of bacterial binding to mannan)) | RIP (relative inhibitory potency) ([2]; relative to IC50 of MeMan on the same plate, IP(MeMan) ≡ 1, type 1 fimbriated E. coli on mannan)
C=CCO[C@H]1O[C@H](CO[C@H]2O[C@H](CO)[C@@H](O)[C@H](O)[C@@H]2O)[C@@H](O)[C@H](O[C@H]2O[C@H](CO)[C@@H](O)[C@H](O)[C@@H]2O)[C@@H]1O [allyl Man(1,3)[Man(1,6)]Man, allyl 3,6-di-O-(α-D-mannosyl)-α-D-mannoside] | 20^a | – | –
C=CCO[C@H]1O[C@H](CO[C@H]2O[C@H](CO)[C@@H](O)[C@H](O)[C@@H]2O)[C@@H](O)[C@H](O)[C@@H]1O [allyl Man(1,6)Man, allyl 6-O-α-D-mannosyl-α-D-mannoside] | 0.5^a | – | –
CO[C@H]1O[C@H](CO)[C@@H](O)[C@H](O)[C@@H]1O [MeMan, methyl α-D-mannopyranoside] | – | 2900 µM | 1
C=CCO[C@H]1O[C@H](CO)[C@@H](O)[C@H](O[C@H]2O[C@H](CO)[C@@H](O)[C@H](O)[C@@H]2O)[C@@H]1O [allyl Man(1,3)Man, allyl 3-O-α-D-mannosyl-α-D-mannoside] | 7^a | – | –
